Reference: publication PMC3038857, “Using Nuclear Receptor Activity to Stratify Hepatocarcinogens” (PLoS ONE, 2011)

Legend:
RXRa (RXRA) = target: T1, RXRa (RXRA) (Homo sapiens, UniProt P19793); assay: NCGC_RXRa_Agonist: GAL4 BLAM Reporter gene assay: RXRa; type: cell-based; settings: agonist mode
T1 sequence (P19793 227-462 limits assumed): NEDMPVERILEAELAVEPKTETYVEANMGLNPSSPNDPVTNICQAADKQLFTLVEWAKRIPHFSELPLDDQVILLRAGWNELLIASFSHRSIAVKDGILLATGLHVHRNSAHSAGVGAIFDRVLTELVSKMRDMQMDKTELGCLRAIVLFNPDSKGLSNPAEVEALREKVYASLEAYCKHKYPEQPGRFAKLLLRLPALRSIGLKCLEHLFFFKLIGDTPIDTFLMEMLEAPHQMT
Description: (§1) These assays measure binding constants and enzyme inhibition values for nuclear receptors. The targets include [drawing 67] , [drawing 68] , [drawing 69] , [drawing 70] , [drawing 71] , [drawing 72] , [drawing 73] , [drawing 74] , [drawing 75] and [drawing 76] . Each of the nuclear receptor targets was measured in agonist mode. Assays were run at the NIH Chemical Genomics Center (Rockville, MD).
(§2) Cell-based HTS Assays: These assays measuring binding constants and enzyme inhibition values for nuclear receptors. The targets include AR, ER, FXR, LXR, PPARα, PPARδ, PPARγ, RXRα, RXRβ and PXR. Each of the nuclear receptor targets was measured in both agonist and antagonist mode, but the antagonist data is still undergoing analysis due to possible interference between cytotoxicity and assay activity, so antagonist mode data were not used in the present analysis. Assays were run at the NIH Chemical Genomics Center (Rockville, MD) as part of the Tox21 collaboration. […] The R^2 was required to be ≥0.5. Values where only the highest concentration exceeded 50% activity were excluded to eliminate weak or false positives. Detailed description of the methods, data and analysis methods for this dataset will be presented in a separate publication.

PXR Human (NR1I2) = target: T2, PXR Human (NR1I2) (Homo sapiens, UniProt O75469); assay: NCGC_PXR_Agonist_human: GAL4 BLAM Reporter gene assay: PXR Human; type: cell-based; settings: agonist mode
T2 sequence (O75469 146-434 limits assumed): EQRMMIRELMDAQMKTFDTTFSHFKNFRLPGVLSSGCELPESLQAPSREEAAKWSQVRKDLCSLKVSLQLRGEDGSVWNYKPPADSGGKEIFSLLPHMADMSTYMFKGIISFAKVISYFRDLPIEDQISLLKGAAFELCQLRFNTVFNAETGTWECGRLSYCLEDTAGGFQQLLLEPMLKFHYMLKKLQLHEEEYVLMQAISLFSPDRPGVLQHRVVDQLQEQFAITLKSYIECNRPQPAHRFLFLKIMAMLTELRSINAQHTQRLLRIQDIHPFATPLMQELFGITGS
Procedure, shortened: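 Tox21 cell-based screens at NCGC using GAL4-fused receptor beta-lactamase reporters. Responses active only at the top concentration (above 50%) were discarded, and fits needed R^2 of at least 0.5.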

PXR (NR1I2) = target: T3, PXR (NR1I2) (Homo sapiens, UniProt O75469); assay: NVS_NR_hPXR: Human PXR Fluormone PXR (SXR) green (cell-free HTS); type: binding
T3 sequence (O75469 1-434): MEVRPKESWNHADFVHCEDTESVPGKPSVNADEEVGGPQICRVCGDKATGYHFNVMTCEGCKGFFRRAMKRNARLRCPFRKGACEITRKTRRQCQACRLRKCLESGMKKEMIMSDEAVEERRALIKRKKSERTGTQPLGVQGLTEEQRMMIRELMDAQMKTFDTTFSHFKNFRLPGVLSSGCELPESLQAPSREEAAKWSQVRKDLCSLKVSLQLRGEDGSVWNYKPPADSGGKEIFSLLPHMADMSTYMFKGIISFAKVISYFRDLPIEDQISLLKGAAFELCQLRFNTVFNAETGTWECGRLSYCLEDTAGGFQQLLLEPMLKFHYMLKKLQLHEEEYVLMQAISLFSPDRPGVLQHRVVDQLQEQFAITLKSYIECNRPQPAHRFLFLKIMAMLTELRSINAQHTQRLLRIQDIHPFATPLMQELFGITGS
Procedure, shortened: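 Cell-free biochemical binding assays; chemicals first screened at a single concentration of 25 […] M in duplicate wells. Signals normalised to same-plate solvent controls as percent of neutral control, and AC50 values came from Hill-equation fits of concentration-response curves.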

PPARg (PPARG) = target: T4, PPARg (PPARG) (Homo sapiens, UniProt P37231); assay: NCGC_PPARg_Agonist: GAL4 BLAM Reporter gene assay: PPARg; type: cell-based; parameters: expressed in transfected cells; host or cells: HEK293; settings: agonist mode
T4 sequence (P37231 1-505): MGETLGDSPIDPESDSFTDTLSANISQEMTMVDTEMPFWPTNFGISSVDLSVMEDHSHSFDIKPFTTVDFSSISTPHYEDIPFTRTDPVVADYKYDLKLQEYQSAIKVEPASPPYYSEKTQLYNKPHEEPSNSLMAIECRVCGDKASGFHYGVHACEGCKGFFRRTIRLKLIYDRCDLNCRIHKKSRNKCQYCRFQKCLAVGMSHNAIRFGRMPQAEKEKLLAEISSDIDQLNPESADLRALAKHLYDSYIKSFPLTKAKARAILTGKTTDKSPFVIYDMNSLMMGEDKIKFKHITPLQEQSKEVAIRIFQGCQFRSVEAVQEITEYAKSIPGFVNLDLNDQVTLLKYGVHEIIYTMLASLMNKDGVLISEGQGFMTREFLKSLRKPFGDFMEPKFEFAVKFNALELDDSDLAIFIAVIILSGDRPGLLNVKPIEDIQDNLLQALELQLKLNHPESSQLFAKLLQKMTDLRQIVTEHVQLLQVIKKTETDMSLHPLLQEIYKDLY
Description: as §1, §2

[1] = target: T5, PPARG (peroxisome proliferator-activated receptor gamma) (Homo sapiens, UniProt P37231); assay: ATG_PPARg_TRANS: Factorial reporter gene assay (HepG2); type: cell-based; settings: HepG2 reporter
T5 construct: expressed in transfected cells; host or cells: HepG2
T5 sequence (P37231 1-505): T4 sequence (P37231 1-505)
Procedure, shortened: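 Each chemical received seven doses, the first at its MTC, then successive three-fold dilutions. Host cells: HepG2 carrying either cis (PXRE, 48 sites) or trans one-hybrid (ERRg, FXR, PPARg; 25 units) reporter libraries.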

CYP1A1 = assay: CLZD_CYP1A1: Change in expression of CYP1A1 (primary human hepatocytes); type: cell-based; settings: 24 hr
Procedure, shortened: (§3)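 Chemicals are tested in human hepatocyte primary cultures over 0.004-40 µM (5 concentrations) for 6, 24 or 48 hr, and concentration- and time-dependent transcript changes are read by quantitative nuclease protection assay.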

CYP1A2 = assay: CLZD_CYP1A2: Change in expression of CYP1A2 (primary human hepatocytes); type: cell-based; settings: 24 hr
Procedure, shortened: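 Primary human hepatocyte cultures were exposed to test chemicals at 5 concentrations (0.004-40 µM) for 6, 24 or 48 hr.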

CYP2B6 = assay: CLZD_CYP2B6: Change in expression of CYP2B6 (primary human hepatocytes); type: cell-based; settings: 24 hr
Procedure, shortened: as §3

Rat Liver [2] = settings: chronic study, rat liver; ref ToxRefDB; cited from earlier work
Rat Liver [3] = settings: chronic study, rat liver; ref ToxRefDB; cited from earlier work; remark: listed apart in the source
Rat Liver [4] = settings: chronic study, rat liver; ref ToxRefDB; cited from earlier work; remark: listed apart in the source
CYP3A4 = assay: CLZD_CYP3A4: Change in expression of CYP3A4 (primary human hepatocytes); type: cell-based; settings: 24 hr
Procedure, shortened: as §3

Mouse Liver [5] = settings: chronic study, mouse liver; ref ToxRefDB; cited from earlier work
Mouse Liver [6] = settings: chronic study, mouse liver; ref ToxRefDB; cited from earlier work; remark: listed apart in the source
Mouse Liver [7] = settings: chronic study, mouse liver; ref ToxRefDB; cited from earlier work; remark: listed apart in the source

Work on `OCCOc1ccccc1` [r243] yielded an NCGC_RXRa_Agonist (RXRa (RXRA)) of 4.774.
In the case of `N#CSCSc1nc2ccccc2s1` [r289], the NCGC_PXR_Agonist_human (PXR Human (NR1I2)) is reported as 4.409, the NVS_NR_hPXR (PXR (NR1I2)) is reported as 6.169 and the NCGC_PPARg_Agonist (PPARg (PPARG)) is reported as 4.706.
For `Fc1ccc(Oc2ccnc3cc(Cl)cc(Cl)c23)cc1` [r277], the ATG_PPARg_TRANS [1] was 5.18, the CLZD_CYP1A1_24 (CYP1A1) was 5.128 and the CLZD_CYP1A2_24 (CYP1A2) was 5.172. The CLZD_CYP2B6_24 (CYP2B6) was 4.999, the CHR_Rat_Liver_1_AnyLesion (Rat Liver [2]) was 0 and the CHR_Rat_Liver_2_PreneoplasticLesion (Rat Liver [3]) was 0. The CHR_Rat_Liver_3_NeoplasticLesion (Rat Liver [4]) was 0 and the NCGC_PPARg_Agonist (PPARg (PPARG)) was 5.174.
Compound `CCC(C)(C)C(=O)OC1=C(c2cc(Cl)cc(Cl)c2)C(=O)OC12CCCCC2` [r285] has an ATG_PPARg_TRANS [1] of 5.444, a CLZD_CYP3A4_24 (CYP3A4) of 6.36 and an NVS_NR_hPXR (PXR (NR1I2)) of 6.367. The CHR_Mouse_Liver_1_AnyLesion (Mouse Liver [5]) was 6, the CHR_Mouse_Liver_2_PreneoplasticLesion (Mouse Liver [6]) was 6 and the CHR_Mouse_Liver_3_NeoplasticLesion (Mouse Liver [7]) was 6. The CHR_Rat_Liver_1_AnyLesion (Rat Liver [2]) was 6, the CHR_Rat_Liver_2_PreneoplasticLesion (Rat Liver [3]) was 6 and the CHR_Rat_Liver_3_NeoplasticLesion (Rat Liver [4]) was 0. It also gave an NCGC_PPARg_Agonist (PPARg (PPARG)) of 5.556.
